What was measured:
Type in all cases: physicochemical
Bulk density = assay: Bulk density
[1] = Moisture absorption and agglomeration
[2] = Angle of repose (flowability) measured with a 1050/70 type goniometer; settings: slightly ground, smeared on horizontal quartz plate; smaller than 40° meets flowability requirements
Experimental: It is generally believed that the smaller the angle of repose, the better the flowability. When the angle of repose is smaller than 40°, flowability requirements in the production process can be met.

[3] = Scanning Electron Microscopy (SEM) characterization of crystals

Structure (SMILES)	Bulk density (Bulk density)	Agglomeration [1]	Angle of repose (flowability) [2]	Susceptibility to absorbing moisture and agglomeration [1]	Particle size distribution [3]
NCCCC(=O)O [CN101928736A, CN103509831A, CN104531795A, CN102242161A] [γ-aminobutyric acid, reference compound]	0.65 g/mL	Serious agglomeration	50°	–	–
NCCCC(=O)O [Embodiment 1, γ-aminobutyric acid]	0.8 g/mL	–	35 °	not susceptible to absorbing moisture and agglomeration	uniform
NCCCC(=O)O [Embodiment 2, γ-aminobutyric acid]	0.7 g/mL	–	37 °	not susceptible to absorbing moisture and agglomeration	uniform
NCCCC(=O)O [Embodiment 3, γ-aminobutyric acid]	0.85 g/mL	–	34 °	not susceptible to absorbing moisture and agglomeration	uniform
NCCCC(=O)O [Embodiment 4, γ-aminobutyric acid]	0.75 g/mL	–	36 °	not susceptible to absorbing moisture and agglomeration	uniform
NCCCC(=O)O [Embodiment 5, γ-aminobutyric acid]	0.7 g/mL	–	37 °	not susceptible to absorbing moisture and agglomeration	uniform
NCCCC(=O)O [Embodiment 6, γ-aminobutyric acid]	0.8 g/mL	–	35 °	not susceptible to absorbing moisture and agglomeration	uniform
NCCCC(=O)O [Present invention, γ-aminobutyric acid]	0.80 g/mL	No agglomeration	35°	–	–

Source: patent US10604474B2, “Crystalline form of gamma-aminobutyric acid and preparation method thereof” (NANTONG LICHENG BIOLOGICAL ENGINEERING CO., LTD, priority 2016, dated 2020)
